Results from patent publication US20210000966A1, “HSP90-TARGETING CONJUGATES AND FORMULATIONS THEREOF” (TARVEDA THERAPEUTICS, INC., priority 2017, published 2021).
Where two headings read alike, the source gives them in different places.

Columns and labels:
[1] = Caco-2 cell monolayer permeability assay; type: in vitro ADME, human; settings: human
Excerpt: (§1) In order to test the ability of the payloads and/or conjugates to enter cells, a cell monolayer assay was utilized employing Caco-2 cells (a human epithelial colorectal adenocarcinoma cell line).
(§2) Experimental Procedure: Caco-2 cells grown in tissue culture flasks are trypsinized, suspended in medium, and the suspensions were applied to wells of a Millipore 96 well Caco-2 plate. The cells are allowed to grow and differentiate for three weeks, feeding at 2-day intervals. For Apical to Basolateral (A→B) permeability, the test agent is added to the apical (A) side and amount of permeation is determined on the basolateral (B) side; for Basolateral to Apical (B→A) permeability, the test agent is added to the B side and the amount of permeation is determine on the A side.

[2] = tested on: Caco-2 cells; test: Caco-2 cell monolayer permeability assay; type: in vitro ADME, human; settings: Caco-2
Excerpt: as §1, §2

[3] = tested on: MEK; test: MEK activity (FIG. 8C); type: biochemical; settings: in words
Excerpt: The activity of the respective payload is blocked until the linker moiety gets cleaved in the tumor and releases active unblocked payload. Through the HSP90 platform, toxicity is mitigated by masking the payload's active site until it can be delivered to the tumor.
FIG. 8A compares the activity of Conjugate 45 and its payload (talazoparib). FIG. 8B compares the activity of Conjugate 46 and its payload (ulixertinib). FIG. 8C compares the activity of Conjugate 47 and its payload TAK-733. The data further support that attaching a payload to a HSP90 binding ligand blocks the target activity of the payload. The HSP90 bindings of the HSP90 ligands are not affected.

[4] = tested on: human total EbB2/Her2; test: HER2 degradation assay (ELISA) in BT474 cells; type: cell-based; settings: BT-474, 16 hrs, read-out: Her2 Degradation IC50 Abs IC50
Procedure: BT474 (breast cancer) cells were plated at 12,000 cells per well and incubated for 20-24 hrs at 37° C. at 5% CO2. Post cell incubation, compounds were reconstituted in DMSO to a stock concentration of 5 mM. A compound plate was then prepared containing a 10 point dilution in DMSO. 2 uL of these dilutions were then added to the cells for a final working concentration of 5 uM to 0.0003 uM. Compounds and cells were incubated for 16 hrs. Media was then removed, cells washed, lysed, and analyzed for human total EbB2/Her2 levels by ELISA.

[5] = tested on: NCI-H460 cells; test: NCI-H460 tumor cell cytotoxicity assay (CellTiter-Glo); type: cell-based; settings: Homo sapiens, NCI-H460, 48 h
Procedure: NCI-H460 cells (non-small cell lung cancer) were plated at 500 cells per well and incubated for 20-24 hrs at 37° C. at 5% CO2. Post cell incubation, compounds were reconstituted in DMSO to a stock concentration of 200 uM. A compound plate was then prepared containing a 10 point dilution in RPMI+10% FBS+0.25% DMSO. 5 uL of the dilution was then added for a final working concentration range of 10 uM to 0.0005 uM. Compounds and cells were then incubated for 48 hrs. Cells were then analyzed by CellTiter-Glo for ATP levels and percent inhibition calculated.

[6] = tested on: H1975 cells (non-small cell lung cancer) xenograft; test: H1975 xenograft study; type: in vivo, mice; settings: 12.5 mg/kg twice a week intravenously, Day 19, compared to vehicle control
Procedure: Female athymic nude mice were implanted with 5×10^6 H1975 cells (non-small cell lung cancer) per mouse in the right hind flank. Once tumors reached a volume of 50 mm^3 to 150 mm^3 they were randomized into two groups of ten to obtain a group average starting tumor volume of 114.4 mm^3. Mice were then treated with either a vehicle control or 12.5 mg/kg of Conjugate 38. All dosing was carried out twice a week intravenously for three weeks, with five total doses being administered. Tumor volumes of the mice were measured. Final study measurements were taken on Day 19, at which point the study was terminated due to vehicle control tumor volumes approaching IACUC limits.

[7] = H460 mouse tumor PK; type: in vivo, mice; settings: for concentration at 96 h / concentration at 144 h: mouse, in vivo, 25 mg/kg, 25 mg/kg IV, read-out: Conjugate 38 Conc. in H460 Mouse Tumor
Procedure: Conjugate and unconjugated payload accumulation at 96 and 144 h in H460 tumor-bearing mice. Conjugate 38 was dosed at 25 mg/kg intravenously.

[8] = tested on: H460 lung cancer xenograft; test: H460 lung cancer xenograft model; type: in vivo, mice; settings: FIG. 2, in words
[9] = tested on: LS174t colon tumor xenograft; test: LS174t colon tumor xenograft model, efficacy; type: in vivo, mice; settings: FIG. 3A, in words
[10] = type: in vivo, mice; settings: LS174t xenograft, FIG. 4
Procedure: Accumulation and retention of Conjugate 38 was tested in this tumor xenograft model.

[11] = tested on: pAKT (S473); test: LS174t tumor xenograft, pharmacodynamic response; type: in vivo, mice; settings: through the course of 48 h, FIG. 5, in words
[12] = tested on: SKOV3 (ovarian cancer) tumor xenograft; test: SKOV3 ovarian cancer xenograft; type: in vivo, mice; settings: Conjugate 38 IV 25 mg/kg vs Copanlisib 6 mg/kg, FIG. 3B
Procedure: (§3) PIK3A mutations occur in about 15% to 30% of breast, endometrial and colon cancers. In additional to LS174t model, other xenograft models harboring common PIK3CA mutations were chosen for testing. In one study, mice bearing SKOV3 (ovarian cancer) tumor xenograft were treated with IV dose of Conjugate 38 at 25 mg/kg and Copanlisib at 6 mg/kg. Doses were selected based on the maximum tolerated dose. In another study, mice bearing BT474 (breast cancer) tumor xenograft were treated with IV dose of Conjugate 38 at 25 mg/kg and Copanlisib at 6 mg/kg.

[13] = tested on: BT474 (breast cancer) tumor xenograft; test: BT474 breast cancer xenograft; type: in vivo, mice; settings: Conjugate 38 IV 25 mg/kg vs Copanlisib 6 mg/kg, FIG. 3C
Procedure: as §3

[14] = tested on: PI3K; test: Cell free PI3K enzyme assay; type: biochemical; settings: FIG. 6, in words
Excerpt: Therefore, conjugating a PI3K enzyme inhibitor payload to a HSP90 targeting ligand masked the PI3K enzyme inhibition.

[15] = Glucose levels post dosing in mice; type: in vivo; settings: FIG. 7, in words
Excerpt: In an in vivo study in mice, glucose levels were monitored post PI3K inhibitor (Copanlisib) and Conjugate 38 dosing. […] Therefore, conjugating a PI3K enzyme inhibitor payload to a HSP90 targeting ligand reduced the normal tissue activity of glucose increase in mice.

In the case of COc1c(OCCCN2CCNCC2)ccc2c1N=C(NC(=O)c1cnc(N)nc1)N1CCN=C21 [Compound 27A], the Papp A→B ([1]; Caco-2, A to B direction) is reported as 0.0032 ×10⁻⁶ cm/s, the Papp B→A ([1]; Caco-2, B to A direction) is reported as 0.0162 ×10⁻⁶ cm/s and the permeability in words [2] is reported as “very low permeability”.

For CCNC(=O)c1nnc(-c2cc(C(C)C)c(O)cc2O)n1-c1ccc(N(C)C2CCN(C(=O)CCC(=O)OC[C@H](O)Cn3cnc4c(c(Nc5ccc(I)cc5F)c(F)c(=O)n4C)c3=O)CC2)cc1 [Conjugate 47], the “MEK activity compared with payload TAK-733” value [3] was “lower than its payload”.

With CCNC(=O)c1nnc(-c2cc(C(C)C)c(O)cc2O)n1-c1ccc(CN2CCN(C(=O)Cc3ccc(OC(=O)N4CCN(CCCOc5ccc6c(c5OC)N=C(NC(=O)c5cnc(N)nc5)N5CCN=C65)CC4)cc3)CC2)cc1 [Compound 38] the IC50 [4] was 39 nM, the IC50 ([5]; n = 1, read-out: H460 in vitro cytotoxicity) was 8.2 nM and the IC50 ([5]; n = 2, read-out: H460 in vitro cytotoxicity) was 7.4 nM. For the same molecule, the tumor growth inhibition [6] was 70.8%, the “accumulation and retention in xenograft tumor tissue” value ([7]; H460 tumor-bearing mice, in words) was “accumulated and was retained in xenograph tumor tissue” and the concentration at 96 h ([7]; Animal ID 1) was 6.2 µM. It also gave a concentration at 96 h ([7]; Animal ID 2) of 7.6 µM, a concentration at 96 h ([7]; Animal ID 3) of 6.25 µM and a concentration at 96 h ([7]; Mean) of 6.68 µM. For the same molecule, the concentration at 144 h ([7]; Animal ID 1) was 0.84 µM, the concentration at 144 h ([7]; Animal ID 2) was 3.61 µM and the concentration at 144 h ([7]; Animal ID 3) was 1.57 µM. The concentration at 144 h ([7]; Mean) was 2.01 µM, the “efficacy (tumor volumes) in H460 xenograft” value [8] was “superior to Copanlisib alone or ganetespib alone” and the “efficacy (tumor growth inhibition) in LS174t xenograft” value [9] was “significant tumor growth inhibition”. The “efficacy compared with combination therapy of copanlisib and ganetespib” value ([9]; LS174t xenograft) was “worked much better than a combination therapy comprising copanlisib and ganetespib”, the “time remaining in the tumor xenograft and releasing active PI3K inhibitor payload” value [10] was > 96 h and the “inhibition of PI3K shown by pAKT (S473)” value [11] was “significant reduction of pAKT (S473)”. For the same molecule, the “tumor growth inhibition compared to Copanlisib” value [12] was “statistically significant increase in tumor growth inhibition”, the “tumor growth inhibition compared to Copanlisib” value [13] was “statistically significant increase in tumor growth inhibition” and the “PI3K enzyme inhibition compared with payload” value [14] was “much less active than its PI3K enzyme inhibitor payload”. The “glucose concentration after dosing” value [15] was “lower glucose concentrations than mice treated with the PI3K inhibitor payload”.
